Tests used:
Experiment in all cases: Protein kinase selectivity panel
Format in all cases: biochemical
Settings in all cases: 1.0 μM compound, 10 μM ATP
ALK(h) = ALK(h) (Homo sapiens, UniProt Q9UM73)
Procedure, shortened: (§1)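 Read-out is phosphorylation of the kinase's appropriate peptide/protein substrate, with and without 1.0 μM test compound. Assays used 10 μM ATP.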

CHK2(h) = CHK2(h) (Homo sapiens, UniProt O96017)
Procedure, shortened: as §1

CK2(h) = CK2(h) (Homo sapiens, UniProt P68400)
Procedure, shortened: as §1

IGF-1R(h) = IGF-1R(h) (Homo sapiens, UniProt P08069)
IGF-1R(h), sequence (P08069 31-1367): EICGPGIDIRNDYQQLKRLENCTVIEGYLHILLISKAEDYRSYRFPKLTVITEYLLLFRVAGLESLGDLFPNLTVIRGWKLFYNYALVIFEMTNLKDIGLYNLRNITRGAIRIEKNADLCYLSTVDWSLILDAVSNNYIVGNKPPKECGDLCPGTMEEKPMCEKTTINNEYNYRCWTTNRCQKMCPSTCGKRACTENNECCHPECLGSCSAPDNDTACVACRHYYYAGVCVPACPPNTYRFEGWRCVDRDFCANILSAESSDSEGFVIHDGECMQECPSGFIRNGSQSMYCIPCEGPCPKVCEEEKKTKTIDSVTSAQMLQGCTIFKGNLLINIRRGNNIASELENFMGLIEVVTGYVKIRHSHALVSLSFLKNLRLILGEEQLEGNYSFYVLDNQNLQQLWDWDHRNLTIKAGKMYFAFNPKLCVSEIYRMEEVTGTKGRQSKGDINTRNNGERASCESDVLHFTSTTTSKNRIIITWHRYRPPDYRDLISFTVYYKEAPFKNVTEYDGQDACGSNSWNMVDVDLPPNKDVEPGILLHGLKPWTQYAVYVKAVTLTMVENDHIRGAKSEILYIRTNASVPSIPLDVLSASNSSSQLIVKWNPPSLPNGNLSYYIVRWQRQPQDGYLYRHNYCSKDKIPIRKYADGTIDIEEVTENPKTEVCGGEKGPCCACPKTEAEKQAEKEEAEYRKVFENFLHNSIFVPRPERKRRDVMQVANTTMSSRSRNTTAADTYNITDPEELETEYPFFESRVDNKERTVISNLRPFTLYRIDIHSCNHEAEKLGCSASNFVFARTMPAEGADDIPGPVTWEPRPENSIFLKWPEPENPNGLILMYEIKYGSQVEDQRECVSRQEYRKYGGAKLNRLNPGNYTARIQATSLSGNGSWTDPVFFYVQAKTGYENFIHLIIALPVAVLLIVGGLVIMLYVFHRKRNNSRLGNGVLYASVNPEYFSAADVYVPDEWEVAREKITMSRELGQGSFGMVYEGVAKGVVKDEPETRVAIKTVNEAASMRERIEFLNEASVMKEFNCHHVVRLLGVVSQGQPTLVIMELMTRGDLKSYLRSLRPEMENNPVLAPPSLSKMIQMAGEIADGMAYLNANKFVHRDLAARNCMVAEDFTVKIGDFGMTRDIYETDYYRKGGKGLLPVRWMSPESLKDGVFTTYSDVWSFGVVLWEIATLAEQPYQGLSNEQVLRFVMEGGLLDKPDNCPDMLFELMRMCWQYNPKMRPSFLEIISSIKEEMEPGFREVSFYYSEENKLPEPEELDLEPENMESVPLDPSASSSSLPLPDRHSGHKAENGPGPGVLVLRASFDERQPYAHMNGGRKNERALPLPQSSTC
Procedure, shortened: as §1

Lyn(m) = Lyn(m) (Mus musculus, UniProt P25911)
Lyn(m), sequence (P25911 whole entry): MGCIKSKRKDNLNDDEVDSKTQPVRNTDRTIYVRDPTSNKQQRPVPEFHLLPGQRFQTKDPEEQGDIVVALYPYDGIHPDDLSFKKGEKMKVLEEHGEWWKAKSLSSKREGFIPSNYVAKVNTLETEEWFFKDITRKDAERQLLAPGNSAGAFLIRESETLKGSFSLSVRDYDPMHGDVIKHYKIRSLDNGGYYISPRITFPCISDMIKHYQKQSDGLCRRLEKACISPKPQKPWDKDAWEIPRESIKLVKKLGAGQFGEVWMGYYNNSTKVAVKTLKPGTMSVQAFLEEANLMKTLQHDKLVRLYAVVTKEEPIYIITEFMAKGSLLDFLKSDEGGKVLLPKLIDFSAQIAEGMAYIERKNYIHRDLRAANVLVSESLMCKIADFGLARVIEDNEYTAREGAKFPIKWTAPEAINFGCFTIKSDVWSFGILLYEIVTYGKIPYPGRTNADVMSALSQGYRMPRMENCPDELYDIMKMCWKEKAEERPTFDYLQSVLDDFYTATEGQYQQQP
Procedure, shortened: as §1

MST2(h) = molecular target: T1, MST2(h) (Homo sapiens, UniProt Q13188)
T1 sequence (Q13188 1-491): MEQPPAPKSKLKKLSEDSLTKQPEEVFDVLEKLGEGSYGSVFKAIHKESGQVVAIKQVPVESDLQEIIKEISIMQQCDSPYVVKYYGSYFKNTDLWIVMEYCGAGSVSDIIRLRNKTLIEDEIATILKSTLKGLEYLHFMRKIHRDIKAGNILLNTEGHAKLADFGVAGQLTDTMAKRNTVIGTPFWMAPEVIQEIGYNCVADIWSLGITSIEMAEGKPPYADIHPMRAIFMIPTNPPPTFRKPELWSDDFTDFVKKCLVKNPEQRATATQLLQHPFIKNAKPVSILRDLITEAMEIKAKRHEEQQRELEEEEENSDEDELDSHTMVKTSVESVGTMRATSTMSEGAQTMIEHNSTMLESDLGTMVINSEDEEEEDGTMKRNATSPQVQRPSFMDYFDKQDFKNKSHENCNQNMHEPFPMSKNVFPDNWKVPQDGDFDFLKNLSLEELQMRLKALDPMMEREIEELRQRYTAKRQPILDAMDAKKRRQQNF
Procedure, shortened: as §1

Met(h) = Met(h) (Homo sapiens, UniProt P08581)
Procedure, shortened: as §1

PKBα(h) = PKBα(h) (Homo sapiens, UniProt P31749)
Procedure, shortened: as §1

PKBγ(h) = PKBγ(h) (Homo sapiens, UniProt Q9Y243)
PKBγ(h), sequence (Q9Y243 whole entry): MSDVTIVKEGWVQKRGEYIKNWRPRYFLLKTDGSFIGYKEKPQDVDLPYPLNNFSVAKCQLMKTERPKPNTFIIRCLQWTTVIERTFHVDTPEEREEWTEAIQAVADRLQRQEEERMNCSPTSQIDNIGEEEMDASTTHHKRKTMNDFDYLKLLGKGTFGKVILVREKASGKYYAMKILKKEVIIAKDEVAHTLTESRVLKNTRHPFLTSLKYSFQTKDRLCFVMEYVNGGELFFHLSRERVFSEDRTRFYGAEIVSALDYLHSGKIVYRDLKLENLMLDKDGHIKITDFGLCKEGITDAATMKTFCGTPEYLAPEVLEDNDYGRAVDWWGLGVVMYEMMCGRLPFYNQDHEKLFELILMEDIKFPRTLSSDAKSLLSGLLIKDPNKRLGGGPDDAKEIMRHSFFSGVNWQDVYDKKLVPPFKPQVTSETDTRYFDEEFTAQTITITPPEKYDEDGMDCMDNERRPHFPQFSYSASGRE
Procedure, shortened: as §1

PKCβII(h) = PKCβII(h) (Homo sapiens, UniProt P05771)
Procedure, shortened: as §1

PKCμ(h) = molecular target: T2, PKCμ(h) (Homo sapiens, UniProt Q15139)
T2 sequence (Q15139 1-912): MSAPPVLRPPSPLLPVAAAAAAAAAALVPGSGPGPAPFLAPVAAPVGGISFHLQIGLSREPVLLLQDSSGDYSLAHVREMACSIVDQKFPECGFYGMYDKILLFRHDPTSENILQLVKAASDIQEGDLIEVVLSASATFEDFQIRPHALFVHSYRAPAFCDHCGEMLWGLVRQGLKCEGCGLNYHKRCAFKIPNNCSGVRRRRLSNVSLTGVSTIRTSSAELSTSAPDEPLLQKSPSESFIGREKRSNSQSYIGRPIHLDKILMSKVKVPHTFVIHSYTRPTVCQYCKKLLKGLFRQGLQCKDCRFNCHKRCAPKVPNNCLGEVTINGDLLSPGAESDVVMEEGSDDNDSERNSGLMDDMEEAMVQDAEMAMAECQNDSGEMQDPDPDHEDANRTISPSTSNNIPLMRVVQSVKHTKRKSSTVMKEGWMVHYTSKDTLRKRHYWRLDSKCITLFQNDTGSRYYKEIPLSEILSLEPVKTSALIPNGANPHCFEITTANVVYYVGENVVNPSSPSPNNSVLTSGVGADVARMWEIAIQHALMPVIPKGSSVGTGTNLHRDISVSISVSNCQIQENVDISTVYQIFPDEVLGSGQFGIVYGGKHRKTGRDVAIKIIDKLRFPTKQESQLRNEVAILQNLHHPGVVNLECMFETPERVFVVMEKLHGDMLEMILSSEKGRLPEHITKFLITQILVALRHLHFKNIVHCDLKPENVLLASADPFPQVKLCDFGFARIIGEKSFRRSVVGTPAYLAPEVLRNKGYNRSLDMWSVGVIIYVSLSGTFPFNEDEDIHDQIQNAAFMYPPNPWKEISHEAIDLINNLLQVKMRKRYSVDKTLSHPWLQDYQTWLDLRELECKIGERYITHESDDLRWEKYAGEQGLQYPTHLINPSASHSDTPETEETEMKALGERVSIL
Procedure, shortened: as §1

Rsk1(r) = Rsk1(r) (Rattus norvegicus, UniProt Q63531)
Rsk1(r), sequence (Q63531 whole entry): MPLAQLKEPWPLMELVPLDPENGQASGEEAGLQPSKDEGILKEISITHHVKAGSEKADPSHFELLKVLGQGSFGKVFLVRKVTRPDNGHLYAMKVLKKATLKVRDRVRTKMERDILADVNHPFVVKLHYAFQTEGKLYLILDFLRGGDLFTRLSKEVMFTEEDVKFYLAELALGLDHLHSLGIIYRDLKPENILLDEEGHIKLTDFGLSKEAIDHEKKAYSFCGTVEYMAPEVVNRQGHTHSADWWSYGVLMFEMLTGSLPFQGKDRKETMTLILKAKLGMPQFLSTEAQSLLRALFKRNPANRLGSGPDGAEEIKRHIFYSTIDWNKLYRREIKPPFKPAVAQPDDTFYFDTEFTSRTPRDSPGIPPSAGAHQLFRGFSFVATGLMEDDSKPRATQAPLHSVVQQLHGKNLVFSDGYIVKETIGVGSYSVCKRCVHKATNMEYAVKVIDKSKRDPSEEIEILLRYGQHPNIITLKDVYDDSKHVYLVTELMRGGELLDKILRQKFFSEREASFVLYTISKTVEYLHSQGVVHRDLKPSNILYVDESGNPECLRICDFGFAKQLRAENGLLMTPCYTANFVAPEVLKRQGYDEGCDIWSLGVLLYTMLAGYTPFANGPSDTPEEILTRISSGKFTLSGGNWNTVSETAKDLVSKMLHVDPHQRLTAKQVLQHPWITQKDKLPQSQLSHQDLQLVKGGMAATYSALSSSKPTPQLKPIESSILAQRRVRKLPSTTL
Procedure, shortened: as §1

ZAP-70(h) = molecular target: T3, ZAP-70(h) (Homo sapiens, UniProt P43403)
T3 construct: purchased Upstate Cell Signaling Solutions (KinaseProfiler Selectivity Screening Service)
T3 sequence (P43403 1-619): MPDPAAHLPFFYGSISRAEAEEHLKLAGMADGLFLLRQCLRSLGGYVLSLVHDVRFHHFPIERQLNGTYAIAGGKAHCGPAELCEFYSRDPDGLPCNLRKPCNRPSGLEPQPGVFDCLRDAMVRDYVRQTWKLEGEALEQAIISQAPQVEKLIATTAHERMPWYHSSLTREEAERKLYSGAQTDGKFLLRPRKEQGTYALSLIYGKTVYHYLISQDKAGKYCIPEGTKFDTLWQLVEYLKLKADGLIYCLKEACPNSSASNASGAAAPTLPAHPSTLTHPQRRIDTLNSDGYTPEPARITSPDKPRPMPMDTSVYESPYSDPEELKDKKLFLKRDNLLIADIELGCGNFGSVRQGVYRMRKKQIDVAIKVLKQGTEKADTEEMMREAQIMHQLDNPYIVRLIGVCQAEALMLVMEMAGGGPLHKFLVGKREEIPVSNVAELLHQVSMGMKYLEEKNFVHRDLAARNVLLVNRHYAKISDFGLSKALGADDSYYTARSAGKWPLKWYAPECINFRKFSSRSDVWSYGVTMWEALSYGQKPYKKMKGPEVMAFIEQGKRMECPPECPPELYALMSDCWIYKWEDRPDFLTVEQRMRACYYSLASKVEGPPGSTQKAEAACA
Procedure, shortened: as §1

ALK(h), sequence (Q9UM73 19-1620): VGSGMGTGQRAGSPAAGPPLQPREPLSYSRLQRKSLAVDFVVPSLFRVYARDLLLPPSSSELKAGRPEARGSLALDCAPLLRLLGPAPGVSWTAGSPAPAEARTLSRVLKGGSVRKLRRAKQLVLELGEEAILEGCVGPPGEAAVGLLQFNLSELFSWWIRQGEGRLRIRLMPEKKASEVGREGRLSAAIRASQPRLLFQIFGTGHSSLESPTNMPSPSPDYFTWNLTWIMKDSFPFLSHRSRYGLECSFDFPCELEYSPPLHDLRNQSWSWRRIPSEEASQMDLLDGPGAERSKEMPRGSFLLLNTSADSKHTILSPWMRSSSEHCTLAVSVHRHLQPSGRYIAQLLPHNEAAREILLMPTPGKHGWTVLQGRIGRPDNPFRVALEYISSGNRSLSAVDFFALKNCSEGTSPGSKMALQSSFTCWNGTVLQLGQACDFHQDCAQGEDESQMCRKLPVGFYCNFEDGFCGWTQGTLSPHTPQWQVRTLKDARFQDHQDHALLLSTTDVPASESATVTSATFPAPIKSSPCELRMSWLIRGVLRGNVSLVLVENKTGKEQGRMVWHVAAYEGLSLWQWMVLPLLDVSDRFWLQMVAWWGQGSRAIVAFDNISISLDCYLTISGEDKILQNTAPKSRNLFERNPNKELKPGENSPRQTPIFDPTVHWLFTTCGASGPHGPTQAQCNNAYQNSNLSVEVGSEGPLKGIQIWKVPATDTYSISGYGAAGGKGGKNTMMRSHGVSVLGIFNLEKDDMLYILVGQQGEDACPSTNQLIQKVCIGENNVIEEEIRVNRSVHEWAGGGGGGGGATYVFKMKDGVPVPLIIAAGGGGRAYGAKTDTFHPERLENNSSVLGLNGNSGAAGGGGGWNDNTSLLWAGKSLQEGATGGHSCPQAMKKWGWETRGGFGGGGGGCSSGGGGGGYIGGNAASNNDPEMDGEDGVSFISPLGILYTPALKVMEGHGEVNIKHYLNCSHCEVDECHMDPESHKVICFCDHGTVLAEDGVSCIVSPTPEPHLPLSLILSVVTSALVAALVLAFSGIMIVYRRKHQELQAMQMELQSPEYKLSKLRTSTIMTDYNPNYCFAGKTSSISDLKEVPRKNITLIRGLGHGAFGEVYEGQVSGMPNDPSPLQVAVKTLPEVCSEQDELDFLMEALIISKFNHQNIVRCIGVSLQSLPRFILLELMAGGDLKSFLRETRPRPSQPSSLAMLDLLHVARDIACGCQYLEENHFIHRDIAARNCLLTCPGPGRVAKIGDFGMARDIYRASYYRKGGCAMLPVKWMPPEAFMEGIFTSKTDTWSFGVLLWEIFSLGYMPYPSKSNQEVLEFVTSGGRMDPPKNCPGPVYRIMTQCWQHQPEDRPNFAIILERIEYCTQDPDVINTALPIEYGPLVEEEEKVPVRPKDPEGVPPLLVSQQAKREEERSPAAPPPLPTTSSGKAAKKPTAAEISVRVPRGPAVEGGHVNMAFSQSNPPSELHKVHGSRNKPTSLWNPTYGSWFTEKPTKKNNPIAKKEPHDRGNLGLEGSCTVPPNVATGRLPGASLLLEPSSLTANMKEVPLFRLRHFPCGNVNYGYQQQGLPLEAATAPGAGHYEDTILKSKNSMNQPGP

| Activity at Protein Kinase Assays (% of control), ALK(h) (ALK(h)) | Activity at Protein Kinase Assays (% of control), CHK2(h) (CHK2(h)) | Activity at Protein Kinase Assays (% of control), CK2(h) (CK2(h)) | Activity at Protein Kinase Assays (% of control), IGF-1R(h) (IGF-1R(h)) | Activity at Protein Kinase Assays (% of control), Lyn(m) (Lyn(m)) | Activity at Protein Kinase Assays (% of control), MST2(h) (MST2(h)) | Activity at Protein Kinase Assays (% of control), Met(h) (Met(h)) | Activity at Protein Kinase Assays (% of control), PKBα(h) (PKBα(h)) | Activity at Protein Kinase Assays (% of control), PKBγ(h) (PKBγ(h)) | Activity at Protein Kinase Assays (% of control), PKCβII(h) (PKCβII(h)) | Activity at Protein Kinase Assays (% of control), PKCμ(h) (PKCμ(h)) | Activity at Protein Kinase Assays (% of control), Rsk1(r) (Rsk1(r)) | Activity at Protein Kinase Assays (% of control), ZAP-70(h) (ZAP-70(h)) | Compound |
| --- | --- | --- | --- | --- | --- | --- | --- | --- | --- | --- | --- | --- | --- |
| 58 % of control | 84 % of control | 108 % of control | 42 % of control | 99 % of control | 100 % of control | 129 % of control | 112 % of control | 103 % of control | 74 % of control | 118 % of control | 5 % of control | 115 % of control | O=C1NC(=O)C2=C1c1cn(c3ccccc13)CCCc1cc(nc(N3CCCC3)c1)CCCn1cc2c2ccccc21 [Cpd 6, 20-pyrrolidin-1-yl-4,14,19,26-tetraazaheptacyclo[24.6.1.1^7,14.1^18,22.0^2,6.0^8,13.0^27,32]pentatriaconta-1(33),2(6),7(35),8,10,12,18(34),19,21,27,29,31-dodecaene-3,5-dione] |
| 74 % of control | 91 % of control | 113 % of control | 106 % of control | 104 % of control | 86 % of control | 132 % of control | 106 % of control | 105 % of control | 77 % of control | 113 % of control | 67 % of control | 121 % of control | O=C1NC(=O)C2=C1c1cn(c3ccccc13)CCCc1ccc(c(N3CCCC3)n1)CCCn1cc2c2ccccc21 [Cpd 7, 31-pyrrolidin-1-yl-5,15,25,30-tetraazaheptacyclo[27.2.2.1^5,12.1^18,25.0^6,11.0^13,17.0^19,24]pentatriaconta-1(31),6,8,10,12(35),13(17),18(34),19,21,23,29,32-dodecaene-14,16-dione] |
| 103 % of control | 91 % of control | 107 % of control | 84 % of control | 90 % of control | 103 % of control | 121 % of control | 94 % of control | 93 % of control | 64 % of control | 110 % of control | 37 % of control | 113 % of control | CN(C)c1nc2ccc1CCCCn1cc(c3ccccc31)C1=C(C(=O)NC1=O)c1cn(c3ccccc13)CCC2 [Cpd 1, 31-(dimethylamino)-5,15,25,32-tetraazaheptacyclo[28.2.2.1^5,12.1^18,25.0^6,11.0^13,17.0^19,24]hexatriaconta-1(32),6,8,10,12(36),13(17),18(35),19,21,23,30,33-dodecaene-14,16-dione] |
| 55 % of control | 94 % of control | 111 % of control | 37 % of control | 102 % of control | 84 % of control | 132 % of control | 114 % of control | 106 % of control | 68 % of control | 118 % of control | 7 % of control | 103 % of control | CN(C)c1cc2cc(n1)CCCn1cc(c3ccccc31)C1=C(C(=O)NC1=O)c1cn(c3ccccc13)CCC2 [Cpd 2, 20-(dimethylamino)-4,14,19,26-tetraazaheptacyclo[24.6.1.1^7,14.1^18,22.0^2,6.0^8,13.0^27,32]pentatriaconta-1(33),2(6),7(35),8,10,12,18(34),19,21,27,29,31-dodecaene-3,5-dione] |
